This test deals with human GLP-1 receptor (Homo sapiens (Human), UniProt P43220). The following applies: read-out: Mean EC50; cAMP, HTRF detection, 30 min at 37° C., HEK-293 cells expressing cloned human GLP-1 receptor. (TR-FRET usually uses a lanthanide donor and a delayed reading to cut background.)
Chain of human GLP-1 receptor (P43220 24-463): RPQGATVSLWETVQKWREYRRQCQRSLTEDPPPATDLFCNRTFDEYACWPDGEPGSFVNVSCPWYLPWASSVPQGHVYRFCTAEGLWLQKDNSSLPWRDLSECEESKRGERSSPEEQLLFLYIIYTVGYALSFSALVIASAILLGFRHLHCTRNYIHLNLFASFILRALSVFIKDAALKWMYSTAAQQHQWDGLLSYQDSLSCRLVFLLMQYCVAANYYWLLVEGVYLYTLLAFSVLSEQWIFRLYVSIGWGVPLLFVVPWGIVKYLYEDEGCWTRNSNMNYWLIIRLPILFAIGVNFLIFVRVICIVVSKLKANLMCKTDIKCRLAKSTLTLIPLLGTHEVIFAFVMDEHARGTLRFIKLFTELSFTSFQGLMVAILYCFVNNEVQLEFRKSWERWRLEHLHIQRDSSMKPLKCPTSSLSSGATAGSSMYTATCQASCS
Experimental: Following overnight incubation of cells, media was removed, and compounds (at concentrations ranging from 0.0001 to 100 μM) were added to monolayer cells in Iscove's modified dulbecco's medium (IMDM), 100 μM RO 20-1724 PDE inhibitor, 0.1% BSA, 2% DMSO in a final volume of 100 μL, and incubated for 30 min at 37° C. […] Alternatively, cells were harvested and combined with compounds in suspension using the buffer and protocol described above. cAMP was quantified using a homogenous time-resolved fluorescence detection system (cAMP dynamic, CIS bio International).
Regarding `COc1cccc(CN2Cc3cc4c(cc3C[C@H]2C(=O)N[C@@H](Cc2ccc(-c3ccnc(C)c3C)cc2)C(=O)O)OC[C@H](c2ccc(OCc3ccc(Cl)c(Cl)c3)cc2)O4)n1` [Example 229, (S)-2-{[(3S,8S)-3-[4-(3,4-Dichloro-benzyloxy)-phenyl]-7-(6-methoxy-pyridin-2-ylmethyl)-2,3,6,7,8,9-hexahydro-[1,4]dioxino[2,3-g]isoquinoline-8-carbonyl]-amino}-3-[4-(2,3-dimethyl-pyridin-4-yl)phenyl]-propionic acid], the EC50 amounted to 0.076 µM.

For `Cc1nccc(-c2ccc(C[C@H](NC(=O)[C@@H]3Cc4cc5c(cc4CN3Cc3nccn3C)O[C@@H](c3ccc(OCc4ccc(Cl)c(Cl)c4)cc3)CO5)C(=O)O)cc2)c1C` [Example 230, (S)-2-{[(3S,8S)-3-[4-(3,4-Dichloro-benzyloxy)-phenyl]-7-(1-methyl-1H-imidazol-2-ylmethyl)-2,3,6,7,8,9-hexahydro-[1,4]dioxino[2,3-g]isoquinoline-8-carbonyl]-amino}-3-[4-(2,3-dimethyl-pyridin-4-yl)phenyl]-propionic acid], the EC50 came to 0.018 µM.

Take `Cc1nccc(-c2ccc(C[C@H](NC(=O)[C@@H]3Cc4cc5c(cc4CN3Cc3nccs3)O[C@@H](c3ccc(OCc4ccc(Cl)c(Cl)c4)cc3)CO5)C(=O)O)cc2)c1C` [Example 231, (S)-2-({(3S,8S)-3-[4-(3,4-Dichloro-benzyloxy)-phenyl]-7-thiazol-2-ylmethyl-2,3,6,7,8,9-hexahydro-[1,4]dioxino[2,3-g]isoquinoline-8-carbonyl}-amino)-3-[4-(2,3-dimethyl-pyridin-4-yl)-phenyl]-propionic acid]: the EC50 stood at 0.039 µM.

For the molecule `Cc1nc(CN2Cc3cc4c(cc3C[C@H]2C(=O)N[C@@H](Cc2ccc(-c3ccnc(C)c3C)cc2)C(=O)O)OC[C@H](c2ccc(OCc3ccc(Cl)c(Cl)c3)cc2)O4)c(C)o1` [Example 232, (S)-2-{[(3S,8S)-3-[4-(3,4-Dichloro-benzyloxy)-phenyl]-7-(2,5-dimethyl-oxazol-4-ylmethyl)-2,3,6,7,8,9-hexahydro-[1,4]dioxino[2,3-g]isoquinoline-8-carbonyl]-amino}-3-[4-(2,3-dimethyl-pyridin-4-yl)-phenyl]-propionic acid], the EC50 worked out at 0.133 µM.

As for `Cc1nccc(-c2ccc(C[C@H](NC(=O)[C@@H]3Cc4cc5c(cc4CN3C(=O)c3ccccn3)O[C@@H](c3ccc(OCc4ccc(Cl)c(Cl)c4)cc3)CO5)C(=O)O)cc2)c1C` [Example 236, (S)-2-{[(3S,8S)-3-[4-(3,4-Dichloro-benzyloxy)-phenyl]-7-(pyridine-2-carbonyl)-2,3,6,7,8,9-hexahydro-[1,4]dioxino[2,3-g]isoquinoline-8-carbonyl]-amino}-3-[4-(2,3-dimethyl-pyridin-4-yl)-phenyl]-propionic acid], the concentration for a half-maximal effect (EC50) was found to be 0.056 µM.

Consider `Cc1ncoc1C(=O)N1Cc2cc3c(cc2C[C@H]1C(=O)N[C@@H](Cc1ccc(-c2ccnc(C)c2C)cc1)C(=O)O)OC[C@H](c1ccc(OCc2ccc(Cl)c(Cl)c2)cc1)O3` [Example 238, (S)-2-{[(3S,8S)-3-[4-(3,4-Dichloro-benzyloxy)-phenyl]-7-(4-methyl-oxazole-5-carbonyl)-2,3,6,7,8,9-hexahydro-[1,4]dioxino[2,3-g]isoquinoline-8-carbonyl]-amino}-3-[4-(2,3-dimethyl-pyridin-4-yl)-phenyl]-propionic acid], for which the EC50 was 0.146 µM.

On to `Cc1nccc(-c2ccc(C[C@H](NC(=O)[C@@H]3Cc4cc5c(cc4CN3C(=O)N[C@@H](C)c3ccccc3)O[C@@H](c3ccc(OCc4ccc(Cl)c(Cl)c4)cc3)CO5)C(=O)O)cc2)c1C` [Example 239, (S)-2-{[(3S,8S)-3-[4-(3,4-Dichloro-benzyloxy)-phenyl]-7-((S)-1-phenyl-ethylcarbamoyl)-2,3,6,7,8,9-hexahydro-[1,4]dioxino[2,3-g]isoquinoline-8-carbonyl]-amino}-3-[4-(2,3-dimethyl-pyridin-4-yl)-phenyl]-propionic acid], for which the EC50 is 0.082 µM.

As for `Cc1nccc(-c2ccc(C[C@H](NC(=O)[C@@H]3Cc4cc5c(cc4CN3C(=O)N[C@H](C)c3ccccc3)O[C@@H](c3ccc(OCc4ccc(Cl)c(Cl)c4)cc3)CO5)C(=O)O)cc2)c1C` [Example 240, (S)-2-{[(3S,8S)-3-[4-(3,4-Dichloro-benzyloxy)-phenyl]-7-((R)-1-phenyl-ethylcarbamoyl)-2,3,6,7,8,9-hexahydro-[1,4]dioxino[2,3-g]isoquinoline-8-carbonyl]-amino}-3-[4-(2,3-dimethyl-pyridin-4-yl)-phenyl]-propionic acid], the EC50 is 0.056 µM.

Regarding `Cc1ccc(NC(=O)N2Cc3cc4c(cc3C[C@H]2C(=O)N[C@@H](Cc2ccc(-c3ccnc(C)c3C)cc2)C(=O)O)OC[C@H](c2ccc(OCc3ccc(Cl)c(Cl)c3)cc2)O4)cc1` [Example 243, (S)-2-({(3S,8S)-3-[4-(3,4-Dichloro-benzyloxy)-phenyl]-7-p-tolylcarbamoyl-2,3,6,7,8,9-hexahydro-[1,4]dioxino[2,3-g]isoquinoline-8-carbonyl}-amino)-3-[4-(2,3-dimethyl-pyridin-4-yl)-phenyl]-propionic acid], the EC50 was found to be 0.092 µM.

For the molecule `CC[C@H](NC(=O)N1Cc2cc3c(cc2C[C@H]1C(=O)N[C@@H](Cc1ccc(-c2ccnc(C)c2C)cc1)C(=O)O)OC[C@H](c1ccc(OCc2ccc(Cl)c(Cl)c2)cc1)O3)c1ccccc1` [Example 245, (S)-2-{[(3S,8S)-3-[4-(3,4-Dichloro-benzyloxy)-phenyl]-7-((S)-1-phenyl-propylcarbamoyl)-2,3,6,7,8,9-hexahydro-[1,4]dioxino[2,3-g]isoquinoline-8-carbonyl]-amino}-3-[4-(2,3-dimethyl-pyridin-4-yl)-phenyl]-propionic acid], the EC50 amounted to 0.203 µM.

Consider `Cc1nccc(-c2ccc(C[C@H](NC(=O)[C@@H]3Cc4cc5c(cc4CN3C(=O)N[C@H](C)c3ccc(F)cc3)O[C@@H](c3ccc(OCc4ccc(Cl)c(Cl)c4)cc3)CO5)C(=O)O)cc2)c1C` [Example 247, (S)-2-({(3S,8S)-3-[4-(3,4-Dichloro-benzyloxy)-phenyl]-7-[(R)-1-(4-fluoro-phenyl)-ethylcarbamoyl]-2,3,6,7,8,9-hexahydro-[1,4]dioxino[2,3-g]isoquinoline-8-carbonyl}-amino)-3-[4-(2,3-dimethyl-pyridin-4-yl)-phenyl]-propionic acid], for which the EC50 amounted to 0.175 µM.

`Cc1nccc(-c2ccc(C[C@H](NC(=O)[C@@H]3Cc4cc5c(cc4CN3C(=O)NC3CCCC3)O[C@@H](c3ccc(OCc4ccc(Cl)c(Cl)c4)cc3)CO5)C(=O)O)cc2)c1C` [Example 248, (S)-2-({(3S,8S)-7-Cyclopentylcarbamoyl-3-[4-(3,4-dichloro-benzyloxy)-phenyl]-2,3,6,7,8,9-hexahydro-[1,4]dioxino[2,3-g]isoquinoline-8-carbonyl}-amino)-3-[4-(2,3-dimethyl-pyridin-4-yl)-phenyl]-propionic acid]: the EC50 came to 0.187 µM.

For `Cc1nccc(-c2ccc(C[C@H](NC(=O)[C@@H]3Cc4cc5c(cc4CN3C(=O)NC(C)C)O[C@@H](c3ccc(OCc4ccc(Cl)c(Cl)c4)cc3)CO5)C(=O)O)cc2)c1C` [Example 250, (S)-2-({(3S,8S)-3-[4-(3,4-Dichloro-benzyloxy)-phenyl]-7-isopropylcarbamoyl-2,3,6,7,8,9-hexahydro-[1,4]dioxino[2,3-g]isoquinoline-8-carbonyl}-amino)-3-[4-(2,3-dimethyl-pyridin-4-yl)-phenyl]-propionic acid], the EC50 worked out at 0.171 µM.

On to `Cc1nccc(-c2ccc(C[C@H](NC(=O)[C@@H]3Cc4cc5c(cc4CN3C(=O)NC(C)(C)C)O[C@@H](c3ccc(OCc4ccc(Cl)c(Cl)c4)cc3)CO5)C(=O)O)cc2)c1C` [Example 251, (S)-2-({(3S,8S)-7-tert-Butylcarbamoyl-3-[4-(3,4-dichloro-benzyloxy)-phenyl]-2,3,6,7,8,9-hexahydro-[1,4]dioxino[2,3-g]isoquinoline-8-carbonyl}-amino)-3-[4-(2,3-dimethyl-pyridin-4-yl)-phenyl]-propionic acid], for which the EC50 was determined as 0.144 µM.

In the case of `Cc1nccc(-c2ccc(C[C@H](NC(=O)[C@@H]3Cc4cc5c(cc4CN3C(=O)NC3CCCCC3)O[C@@H](c3ccc(OCc4ccc(Cl)c(Cl)c4)cc3)CO5)C(=O)O)cc2)c1C` [Example 252, (S)-2-({(3S,8S)-7-Cyclohexylcarbamoyl-3-[4-(3,4-dichloro-benzyloxy)-phenyl]-2,3,6,7,8,9-hexahydro-[1,4]dioxino[2,3-g]isoquinoline-8-carbonyl}-amino)-3-[4-(2,3-dimethyl-pyridin-4-yl)-phenyl]-propionic acid], the EC50 was 0.099 µM.

As to `Cc1cccc(NC(=O)N2Cc3cc4c(cc3C[C@H]2C(=O)N[C@@H](Cc2ccc(-c3ccnc(C)c3C)cc2)C(=O)O)OC[C@H](c2ccc(OCc3ccc(Cl)c(Cl)c3)cc2)O4)c1` [Example 253, (S)-2-({(3S,8S)-3-[4-(3,4-Dichloro-benzyloxy)-phenyl]-7-m-tolylcarbamoyl-2,3,6,7,8,9-hexahydro-[1,4]dioxino[2,3-g]isoquinoline-8-carbonyl}-amino)-3-[4-(2,3-dimethyl-pyridin-4-yl)-phenyl]-propionic acid], the EC50 was 0.085 µM.

As for `Cc1nccc(-c2ccc(C[C@H](NC(=O)[C@@H]3Cc4cc5c(cc4CN3C(=O)Nc3ccc(F)c(F)c3)O[C@@H](c3ccc(OCc4ccc(Cl)c(Cl)c4)cc3)CO5)C(=O)O)cc2)c1C` [Example 254, (S)-2-{[(3S,8S)-3-[4-(3,4-Dichloro-benzyloxy)-phenyl]-7-(3,4-difluoro-phenylcarbamoyl)-2,3,6,7,8,9-hexahydro-[1,4]dioxino[2,3-g]isoquinoline-8-carbonyl]-amino}-3-[4-(2,3-dimethyl-pyridin-4-yl)-phenyl]-propionic acid], the EC50 came to 0.186 µM.

With `Cc1nccc(-c2ccc(C[C@H](NC(=O)[C@@H]3Cc4cc5c(cc4CN3C(=O)Nc3cc(F)cc(F)c3)O[C@@H](c3ccc(OCc4ccc(Cl)c(Cl)c4)cc3)CO5)C(=O)O)cc2)c1C` [Example 255, (S)-2-{[(3S,8S)-3-[4-(3,4-Dichloro-benzyloxy)-phenyl]-7-(3,5-difluoro-phenylcarbamoyl)-2,3,6,7,8,9-hexahydro-[1,4]dioxino[2,3-g]isoquinoline-8-carbonyl]-amino}-3-[4-(2,3-dimethyl-pyridin-4-yl)-phenyl]-propionic acid], the EC50 was 0.317 µM.

One may read the EC50 as the midpoint of the concentration-response curve.

The values are drawn from US9175003B2, “Substituted azoanthracene derivatives and intermediates for preparation thereof” (TransTech Pharma, LLC, priority 2009, dated 2015).
